# Measurements taken from EPA's ToxValDB 9.5 (doi:10.2903/j.efsa.2008.169r).
# Key:
# Aphidius rhopalosiphi = experiment: LR50; higher = less toxic; details: not reported; mortality
# Canidae = details: subchronic; duration: 90 days; oral; Dog Other; organ weight
# Daphnia magna = details: chronic/long-term, reproduction
# Coturnix coturnix = details: mortality; for LD50: acute, oral
# Tagia sp. = details: acute; duration: 14 days; mortality
# Apis mellifera = details: acute; duration: 48 hours; dermal; mortality
smiles,measurement,setting,value
COCCN(C(=O)CCl)c1c(C)cccc1C [Dimethachlor],LR50,Aphidius rhopalosiphi,91 g/ha
same,NOAEL,Canidae,10 mg/kg-day
same,NOEC,Daphnia magna; duration: 21 days,0.476 mg/L
same,NOEC,Daphnia magna; duration: 22 days,2.3 mg/L
same,LC50,"Oncorhynchus mykiss; acute, duration: 96 hours, mortality",3.9 µg/mL
same,NOEC,"Oncorhynchus mykiss; chronic/long-term, duration: 21 days, growth",0.85 mg/L
same,LD50,Coturnix coturnix; diet,> 1470 mg/kg-day
same,LD50,Coturnix coturnix,524 mg/kg-day
same,NOEL,"Coturnix coturnix; reproduction developmental, duration: 140 days",102 mg/kg-day
same,LD50,"Rattus norvegicus; acute, oral, mortality",1600 mg/kg-day
same,NOAEL,"Rattus norvegicus; chronic, duration: 2 years, body weight",11.1 mg/kg-day
same,NOEL,"Rattus norvegicus; chronic, mortality",20 mg/kg-day
same,NOAEL,"Rattus norvegicus; developmental, development",50 mg/kg-day
same,LC50,Tagia sp.,> 70 mg/kg
same,LD50,Apis mellifera,> 200 µg/piece
